US10302631B2, “Genetically encoded probe for quantification of pyruvate concentration and methods of using the same” (CENTRO DE ESTUDIOS CLENTIFICOS DE VALDIVIA, priority 2013, dated 2019)

Key:
[1] = system: monocarboxylate transporter (MCT); assay: Initial rate of uptake of 1 mM pyruvate measured with the sensor, inhibition by MCT blockers; assay type: cell-based, mice; conditions: astrocytic uptake
Method: In this first embodiment, with the information obtained in the calibration step, the disruption of the steady-state of pyruvate entering the cell is carried out by altering the extracellular concentration of pyruvate, thus exposing the cells to pyruvate. This causes a rise in intracellular pyruvate that is monitored with the pyruvate sensor and whose initial rate is independent of pyruvate metabolism and can be used to estimate kinetic parameters (FIG. 18). Exposure of the cells to increasing concentrations of pyruvate allows the estimation of kinetic parameters for the pyruvate transporter. Kinetic parameters are also obtained from the decrease in intracellular pyruvate after removal of extracellular pyruvate. The identity of the transport pathway for pyruvate can be determined by the use of pharmacological blockers of specific transporter proteins, such as phloretin or AR-C155858 (FIG. 18 and FIG. 19), or other such as parachloromercurybenzoate, anti-MCT antisera, etc., or with compounds that interfere with the expression of specific transporter proteins, such as shRNA or siRNA, or by other similar means.
Animals and Cell Cultures. […]
(§1) Fluorescence Measurements. Nickel-purified proteins were resuspended at 100 nM in an intracellular buffer containing (mM): 10 NaCl, 130 KCl, 1.25 MgSO4 and 10 HEPES, pH 7.0, and measured with a microplate reader analyzer (EnVision, PerkinElmer). […]

HEK293 cells = assay: Rate of cellular pyruvate production after MCT blockage; assay type: cell-based
Method: In this second embodiment cells are incubated under physiological concentrations of glucose, lactate and pyruvate, and with the information obtained in the calibration step and the known sensitivity of surface pyruvate transporters to specific inhibitors, the steady-state of pyruvate is acutely disrupted by blocking the function of pyruvate transporter, for example by addition of a pharmacological blocker of the pyruvate transporter. In mammalian cells, the pyruvate transporter is the MCT and can be blocked with phloretin, parachloromercurybenzoate, AR-C155858, anti-MCT antisera, or other suitable compounds. […] If the cell is a net pyruvate importer, application of the MCT-blocker causes a fall in intracellular pyruvate concentration, the initial rate of which is equal to the rate of pyruvate consumption on the steady-state. […] A critical property of this sensor is that has a single component of binding so that it allows accurate quantitation of these rates. […]
as §1, with “PerkinElmer). The proteins were excited at 430 nm and the intensity of fluorescence emission of mTFP and Venus were recorded at 485 nm (FmTFP) and 528 nm (FVenus), respectively.” for “PerkinElmer).”

[2] = system: mitochondrial pyruvate consumption in HEK293 cells; assay: Rate of mitochondrial pyruvate consumption, pyruvate as exclusive substrate, after MCT blockage; assay type: cell-based
Pyronic = assay: Specificity: effect of a panel of metabolites on the purified sensor and on its response to pyruvate; assay type: biochemical, Escherichia coli
Method: The specificity was investigated by exposing the sensor to high concentrations of a panel of metabolites of natural occurrence (FIG. 9). From the chosen set of molecules, citrate and oxalacetate produced a modest effect at 1 mM, and a very small at 100 μM Oxalacetate levels are in the low micromolar range and should not affect the pyruvate sensor, and cytosolic citrate levels are below 100 μM (Siess et al., 1978; Kauppinen et al., 1982), and therefore should have a negligible effect on the pyruvate sensor. Further to explore the specificity, the effect of a panel of metabolites on the response of the sensor to pyruvate was explored (FIGS. 10, 11 and 12). […] The response of the sensor to pyruvate was insensitive to the extreme values of the redox ratio, achieved by manipulating NAD^+ and NADH (FIG. 13).
Fluorescence Measurements. Nickel-purified proteins were resuspended at 100 nM in an intracellular buffer containing (mM): 10 NaCl, 130 KCl, 1.25 MgSO4 and 10 HEPES, pH 7.0, and measured with a microplate reader analyzer (EnVision, PerkinElmer). The proteins were excited at 430 nm and the intensity of fluorescence emission of mTFP and Venus were recorded at 485 nm (FmTFP) and 528 nm (FVenus), respectively. The ratio (R) between FmTFP and FVenus was used to characterize the sensors. Emission spectra were obtained at 430 nm excitation, with 2 nm windows. Cells were imaged at room temperature (22-25° C.) in a 95% air/5% CO2-gassed solution of the following composition (in mM): 112 NaCl, 1.25 CaCl2, 1.25 MgSO4, 1-2 glucose, 10 HEPES, 24 NaHCO^3, pH 7.4, with 3 mM KCl (astrocytes) or 5 mM KCl (HEK and T98G) using an upright Olympus FV1000 Confocal Microscope equipped with a 20× water immersion objective (N.A. 1.0) and a 440 nm solid-state laser. Alternatively, cells were imaged with an Olympus IX70 or with an Olympus BX51 microscope equipped with a 40× oil-immersion objective (NA 1.3) or with a 20× water-immersion objective (NA 0.95). Microscopes were equipped with CAIRN monochromators (Faversham, UK), and either a Hamamatsu Orca camera controlled by Kinetics software or a Rollera camera controlled with Metafluor software, respectively. For sensor ratio measurements, cells were excited at 430 nm for 0.2-0.8 s. Emission was divided with a CAIRN Optosplit, equipped with band pass filters at 480±20 (FmTFP) and 535±15 nm (FVenus). The ratio between FmTFP and FVenus was used to measure pyruvate.

## O=C(CCc1ccc(O)cc1)c1c(O)cc(O)cc1O [phloretin]
[1]; blocker at 50 μM
  inhibition of initial rate of uptake of 1 mM pyruvate: strongly inhibited

## Cc1n[nH]c(C)c1Cc1sc2c(c1C(=O)N1C[C@H](O)CO1)c(=O)n(C)c(=O)n2CC(C)C [AR-C155858]
[1]; blocker at 1 μM
  inhibition of initial rate of uptake of 1 mM pyruvate: strongly inhibited
HEK293 cells; HEK293 cells, blocker at 1 μM
  change in intracellular pyruvate after MCT blockage: increase in intracellular pyruvate
HEK293 cells; single HEK293 cell
  rate of accumulation of intracellular pyruvate after MCT blockage: 0.72 µM/s
[2]; cells deprived of glucose, high extracellular pyruvate
  change in cytosolic pyruvate concentration after MCT blockage: fall in the cytosolic pyruvate concentration
[2]; single HEK293 cell, pyruvate as exclusive substrate
  rate of decrease in intracellular pyruvate after MCT blockage: 1.73 µM/s

## O=C(O)CC(=O)C(=O)O [oxalacetate]
Pyronic; metabolite at 100 μM
  effect on the fluorescence ratio of the sensor: very small
Pyronic; metabolite at 1 mM
  effect on the fluorescence ratio of the sensor: modest effect

## O=C(O)CC(O)(CC(=O)O)C(=O)O [citrate]
Pyronic; metabolite at 100 μM
  effect on the fluorescence ratio of the sensor: very small
  effect on the response of the sensor to pyruvate: very small effect
Pyronic; metabolite at 1 mM
  effect on the fluorescence ratio of the sensor: modest effect
  effect on the response of the sensor to pyruvate: significant effect
